From patent US9326972B2, “Use of phenylmethimazoles, methimazole derivatives, and tautomeric cyclic thiones for the treatment of autoimmune/inflammatory diseases associated with toll-like receptor overexpression” (Ohio University, priority 2004, dated 2016)

How the values were obtained:
TLR3 = TLR3 mRNA in NPA human thyrocytes (Northern); assay type: cell-based; conditions: 0.5 mM C10
Description: In order to confirm the presence and functionality of TLR3 in human thyrocytes, we evaluated TLR3 expression in cultured NPA human thyrocytes. NPA thyrocytes are from a papillary carcinoma but are known to retain functional properties of normal thyrocytes. Transfection with dsRNA [Poly (I:C)], but not transfection by dsDNA or incubation with Poly (I:C), was able to increase TLR3 mRNA levels in Northern blots. The dsRNA, but not the dsDNA transfection, could also increase IFN-β mRNA levels, measured as before with PCR. Additionally, as was the case for FRTL-5 cells and dsRNA transfection, IFN-β increased PKR mRNA levels as well as TLR3 RNA levels.
NPA-87 cells are a continuous line of human thyrocytes derived from papillary carcinoma cells. They retain several functional responses including TSH-increased cAMP signaling (J. Xu, et al., J Clin Endocrinol Metab, 88:4990-6 (2003)). They were kindly provided by Dr. Guy Julliard (University of California, Los Angeles, Calif.) and grown in RPMI 1640 medium supplemented with 2 g/liter sodium bicarbonate, 0.14 mM nonessential amino acids, 1.4 mM sodium pyruvate, and 10% fetal bovine serum, pH 7.2.
RNA Isolation and Northern Analysis.

IRF-1 = assay: LPS-increased IRF-1 mRNA and IRF-1 binding to MxISRE in RAW 264.7 macrophages (Northern, EMSA); assay type: cell-based, mouse
Text: IRF-1 is a transcription factor which is induced upon LPS stimulation of macrophages through a Stat1 dependent mechanism (Y. Ohmori, et al., J Leukoc Biol, 69:598-604 (2001)). Therefore IRF-1 provides another example of a response that may be affected by an inhibitor of LPS induced IFN-β signaling. Unlike other molecules studied thus far, IRF-1 acts as a transcription factor to directly bind to DNA to enhance transcription of other genes such as iNOS (R. Kamijo, et al., Science, 263:1612-5, (1994)). In macrophages treated with LPS, IRF-1 is required for the transcriptional control of the iNOS gene (R. Kamijo, et al., Science, 263:1612-5 (1994)). […] Typical LPS induction for each time point is observed in each LPS plus DMSO lane (FIG. 14A, lanes 2, 5, 8). […] The decrease by C10 is much greater than by MMI (FIG. 14A, lanes 6 and 9 vs 7 and 10, respectively). […] Specificity was observed upon incubation of extracts with unlabeled […] probe (FIG. 14B, lane 9). […] ID NO:23) and [NT] (469 bp) (SEQ ID NO:24); […] ID NO:25) and [NT] […] ID NO:27) and [NT] […] ID NO:29) and [NT] (586 bp) (SEQ ID NO:30). […] EMSA in RAW 264.7 cells: Nuclear extracts were prepared using NE-PER® extraction reagents (Pierce Chemical Co.; Rockford, Ill.) in the presence of a protease inhibitor cocktail (PMSF, Leupeptin, Pepstatin-A). Oligonucleotide sense strand probe sequences were as follows […] probe: [NT] […]

iNOS = assay: LPS-induced iNOS mRNA in RAW 264.7 macrophages (RT-PCR); assay type: cell-based, mouse; conditions: RAW 264.7, LPS 3 hours, C10 in DMSO or vehicle B
Description: In macrophages NO production occurs as a result of LPS induction of iNOS (C. Bogdan, Nat Immunol, 2:907-16 (2001)) and is a process that depends on autocrine signaling by IFN-β. We used standard reverse transcriptase polymerase chain reaction to detect the inhibition of LPS induced iNOS transcription in the presence of C10 (FIG. 13A). The RAW 264.7 cells were treated with LPS in the presence of C10, its vehicle control, DMSO, or another excipient vehicle (compound B; see Table 8) for 3 hours. Table 8 establishes that C10 is effective in vivo in the mouse toxic shock model and in FRTL-5 cell assays in vitro when solubilized in water in the presence of the compound B excipient, i.e., water soluble forms of C10 are effective in both in vivo and in vitro just as C10 in DMSO. In the presence of DMSO control (FIG. 13A, lane 4) or vehicle B only (FIG. 13A, lane 5) little or no iNOS reduction was detected respectively when compared to LPS only (FIG. 13A lane 3).
Standard reverse transcriptase PCR for INOS: RNA was isolated as described above and treated with DNAse a described above. […] of DNA free RNA was then reverse transcribed with the Advantage® RT-for PCR kit (BD Biosciences, Palo Alto, Calif.) in a total volume of 20 μl. Five μl of cDNA was then amplified using ExTaq™ DNA polymerase (Takara, Madison, Wis.) in a reaction volume of 25 μl. […]

Cn1c(-c2ccccc2)cnc1S [Compound C10, 5-Phenylmethimazole]
dsRNA transfection- or IFN-β-increased TLR3 mRNA levels (TLR3): decreased | LPS induced IRF-1 binding to the MxISRE element (EMSA) (IRF-1; RAW 264.7, LPS 1 μg/mL 2 hours): dose dependent reduction | LPS-increased IRF-1 mRNA (IRF-1; RAW 264.7, LPS 1 μg/mL, 2 and 3 hours, Northern): strong reduction | LPS induced iNOS mRNA (iNOS): strong reduction
